# Key:
# male Fischer 344 rats = assay: APFO in diet of male Fischer 344 rats for up to one year; format: in vivo, rat; conditions: 300 ppm in diet
# Method: Body weights were initially determined daily and then weekly. Food consumption was determined weekly. Clinical observations were made daily.
# Rats were sacrificed at 1, 2, 7, 14, 28, 90, 182 and 365 days. There were 8 rats per group. At sacrifice blood was sampled by cardiac puncture and submitted for clinical chemistry.
# HepG2 cells = assay: In vitro cytotoxicity (MTT), HepG2; format: cell-based, human; conditions: HepG2, 4 hours exposure
# Method: (§1) HT-29 cells (human colon tumour-derived), MCF7 cells (human breast cancer-derived) and HepG2 cells (human liver cancer-derived) were cultured in Dulbecco's Modified Eagles Medium (DMEM) supplemented with 10% heat-inactivated foetal calf serum, 2 mM L-glutamine, penicillin (50 IU/ml), streptomycin (50 μg/ml) and 1% non-essential amino acids. Cells were harvested by trypsinisation and diluted to 5×10^4 cells/ml, and 200 μl of cell suspension was plated into each well of a 96 well plate and allowed to attach overnight at 37° C. with 5% CO2. […] 20 μl of a 5 mg/1 m MTT solution was added to each well and the cells were incubated for 4 hours at 37° C. The medium was removed and 200 μl DMSO was added to dissolve formazan crystals. Plates were read at 570 nm and background at 690 nm was subtracted.
# MCF7 cells = assay: In vitro cytotoxicity (MTT), MCF7; format: cell-based, human; conditions: MCF7, 4 hours exposure
# Method: as §1
# mouse PPAR alpha = target: T1, mouse PPAR alpha (Mus musculus, UniProt P23204); assay: Mouse PPAR alpha transactivation assay in COS-1 cells; format: cell-based; conditions: luciferase reporter, 16 hours, read-out: EC50, activation of mouse PPAR alpha
# T1 construct: expressed in transfected cells; host or cells: COS-1 cells
# T1 sequence (P23204 1-468): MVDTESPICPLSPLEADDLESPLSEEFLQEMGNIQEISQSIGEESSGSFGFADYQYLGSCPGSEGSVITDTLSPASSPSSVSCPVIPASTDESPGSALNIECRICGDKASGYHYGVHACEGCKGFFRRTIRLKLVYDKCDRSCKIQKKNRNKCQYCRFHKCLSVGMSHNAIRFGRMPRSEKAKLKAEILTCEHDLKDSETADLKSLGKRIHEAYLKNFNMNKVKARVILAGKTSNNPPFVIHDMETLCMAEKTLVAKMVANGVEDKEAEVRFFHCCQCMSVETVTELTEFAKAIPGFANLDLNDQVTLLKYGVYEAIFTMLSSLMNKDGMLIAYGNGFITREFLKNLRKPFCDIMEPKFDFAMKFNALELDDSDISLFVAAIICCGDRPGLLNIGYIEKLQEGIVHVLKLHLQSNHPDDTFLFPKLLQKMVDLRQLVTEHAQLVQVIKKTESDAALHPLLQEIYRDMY
# Wistar rats = assay: Non-diabetic Wistar rats, oral gavage daily for 14 days; format: in vivo, rat
# Method: (§2) The GK/Mol rat is a non-obese, diabetic animal that is widely accepted as a model of Type II diabetes. In order to measure the ‘normal’ response, non-diabetic Wistar rats were also used in the study.
# (§3) One group of 10 GK/Mol rats was also treated with vehicle (water) alone.
# (§4) Twenty-four hours after the last dose the animals were killed by an increasing concentration of carbon dioxide. Blood was collected by cardiac puncture and plasma prepared and stored at −70° C. until analysed. Major tissues were weighed, sampled, flash frozen in liquid nitrogen and stored at −70° C.
# (§5) Plasma was analysed for, triglycerides, cholesterol, glucose, insulin and leptin as described in section 1.1.1.
# GK/Mol rats = assay: Diabetic GK/Mol rat model, oral gavage daily for 14 days; format: in vivo
# Method: as §2, §3, §4, §5
# C57BL/6J-+/+ mice = assay: Lean disease-free +/+ mice, oral gavage daily for 14 days; format: in vivo, mouse; conditions: 25 mg/kg/day
# Method: (§6) The C57BL/6J-ob/ob mouse is an obese, leptin-deficient animal that is widely accepted as a model of obesity and diabetes. Age-paired, disease-free (lean) animals (C57BL/6J-+/+) were also included in the study to observe the ‘normal’ response.
# (§7) One group of 10 ob/ob mice was also treated with vehicle (water) alone.
# as §4
# (§8) Plasma was analysed for triglycerides, cholesterol and glucose using kits purchased from Sigma (Poole, Dorset). Concentrations of plasma insulin and leptin were determined using commercially available enzymeimmunoassay-based kits from Amersham Life Sciences and Crystalchem Inc., (Chicago) respectively. All assays were carried out as specified by the manufacturer.
# HT-29 cells = assay: In vitro cytotoxicity (MTT), HT-29; format: cell-based, human; conditions: HT-29, 4 hours exposure
# Method: as §1
# C57BL/6J-ob/ob mice = assay: Obese ob/ob mouse model, oral gavage daily for 14 days; format: in vivo
# Method: as §6, §7, §4, §8
# HT-29 xenograft = HT-29 xenograft model in nude mice; format: in vivo, nu/nu mice; conditions: for lag phase of tumour growth: ip 3 times per week
# Method: Athymic nude (nu/nu) mice from ICRF stock (HsdOla:ICRF-nu) were obtained from Clare Hall (Pofters Bar, UK). All animals were female and approximately 9 weeks old. Animals, housed in isolator cages and handled under laminar flow, were divided into one control group and two treatment groups, with 5 female mice per group for both the prophylactic and therapeutic schedules
# HT-29 cells were cultured according to the conditions described in section 2.1.1. Cells were harvested, pooled by centrifugation and resuspended in 5 ml medium to which 5 ml Matrigel (basement membrane matrix) was added. 100 μl of cell suspension was injected subcutaneously into each flank of the mice (1.75×10^6 cells per flank).
# The volume of the dosing solution was 10 ml/kg bodyweight. Control animals received an equivalent volume of water.
# Animal bodyweights were recorded throughout the study. Tumour growth was measured 3 times per week using digital calipers and the volume was calculated using the formula:
# Where d1=mean length (n=2) and d2=mean width (n=2). (NB, n=4 if tumour was an irregular shape).
# The maximum permitted tumour volume, according to the terms of the Home Office license, was 1.44 cm^3. Results were expressed graphically for each time point as mean tumour volumes. Tumour weights were recorded at the end of the study, and tumour samples were either snap frozen in liquid nitrogen or fixed in formal saline for further analysis.
smiles,measurement,setting,value
"N.O=C(O)C(F)(F)C(F)(F)C(F)(F)C(F)(F)C(F)(F)C(F)(F)C(F)(F)F [APFO, ammonium perfluorooctanoate]",adverse clinical symptoms or changes in activity,male Fischer 344 rats,not accompanied by any adverse clinical symptoms
same,bodyweight gain,male Fischer 344 rats,marked reductions
same,plasma triglycerides,male Fischer 344 rats; 7 days and beyond,decreased
same,"food consumption per rat, % of control values",male Fischer 344 rats; after first week,80-90%
same,plasma cholesterol concentration,male Fischer 344 rats; all time points (1-365 days),decreased
same,plasma glucose concentration,male Fischer 344 rats; all time points (1-365 days),decreased
same,plasma insulin concentration,male Fischer 344 rats; all time points (1-365 days),decreased
same,decrease of food consumed per unit bodyweight,male Fischer 344 rats; first week,approximately 30%
same,"food consumption per rat, % of control consumption",male Fischer 344 rats; first week of treatment,approximately 50%
same,body weights lower than concurrent controls,male Fischer 344 rats; up to one year,25-30%
same,concentration eliciting a cytotoxic effect,HepG2 cells,exceeding 500 μM
same,concentration eliciting a cytotoxic effect,MCF7 cells,exceeding 500 μM
same,EC50,mouse PPAR alpha,102 µM
same,bodyweight gain,Wistar rats; 30 mg/kg,no effect
same,food consumption versus controls,Wistar rats; 30 mg/kg,no difference
same,"plasma cholesterol, % of control values",Wistar rats; 30 mg/kg,73%
same,"plasma insulin, % of control values",Wistar rats; 30 mg/kg,about 10%
same,group mean plasma leptin lower than controls by,Wistar rats; 30 mg/kg/day,approximately 40%
same,plasma leptin concentration,GK/Mol rats; GK/Mol rats,no differences
same,"plasma glucose, % of control values","GK/Mol rats; GK/Mol, 30 mg/kg/day",about 85%
same,"total food consumption, % of control values","GK/Mol rats; GK/Mol, 3, 10, 30 mg/kg, not related to dose",86-98%
same,"plasma insulin, % of control values","GK/Mol rats; GK/Mol, dose-dependent reduction reaching this value",about 10%
same,"body weight gain, % of control values","GK/Mol rats; GK/Mol, high dose 30 mg/kg",44%
same,"body weight gain, % of control values","GK/Mol rats; GK/Mol, low dose 3 mg/kg",90%
same,"body weight gain, % of control values","GK/Mol rats; GK/Mol, mid dose 10 mg/kg",71%
same,epididymal fat pad weight,C57BL/6J-+/+ mice,decreased
same,overall food consumption lower than +/+ controls,C57BL/6J-+/+ mice,31%
same,"plasma glucose, % of control values",C57BL/6J-+/+ mice,55%
same,plasma insulin concentration,C57BL/6J-+/+ mice,marked reduction
same,plasma leptin concentration decreased,C57BL/6J-+/+ mice,"to, or below the level of quantitation"
same,"plasma triglycerides, % of control values",C57BL/6J-+/+ mice,35%
same,reduction in plasma cholesterol concentration,C57BL/6J-+/+ mice,~30%
same,bodyweight loss as percentage of initial bodyweight,C57BL/6J-+/+ mice; 14 days,26%
same,concentration eliciting a cytotoxic effect,HT-29 cells,exceeding 500 μM
same,other adverse clinical observations,"C57BL/6J-ob/ob mice; 5, 15, 25 mg/kg/day, 14 days",No other adverse clinical observations
same,reduction in plasma insulin concentration,"C57BL/6J-ob/ob mice; all treated ob/ob mice (5, 15, 25 mg/kg/day)",greater than 90%
same,plasma triglyceride concentration,"C57BL/6J-ob/ob mice; ob/ob, 5 mg/kg/day",no effect
same,reduction of plasma glucose,"C57BL/6J-ob/ob mice; ob/ob, 5 mg/kg/day",approximately 50%
same,bodyweight,"C57BL/6J-ob/ob mice; ob/ob, 5 mg/kg/day, 14 days",unaffected
same,bodyweight loss over the study period,"C57BL/6J-ob/ob mice; ob/ob, 15 mg/kg/day, 14 days",20%
same,reduction in plasma cholesterol concentration,"C57BL/6J-ob/ob mice; ob/ob, 25 mg/kg/day",~30%
same,bodyweight loss as percentage of initial bodyweight,"C57BL/6J-ob/ob mice; ob/ob, 25 mg/kg/day, 14 days",33%
same,"plasma triglyceride, % of control values","C57BL/6J-ob/ob mice; ob/ob, 15 or 25 mg/kg/day",40%
same,"plasma glucose, % of control values","C57BL/6J-ob/ob mice; ob/ob, 15 or 25 mg/kg/day, dose-related",approximately 20%
same,epididymal fat pad weight,"C57BL/6J-ob/ob mice; ob/ob, dose-related",decreased
same,food consumption lower than control mice,"C57BL/6J-ob/ob mice; ob/ob, high dose 25 mg/kg/day",76%
same,food consumption lower than control mice,"C57BL/6J-ob/ob mice; ob/ob, intermediate dose 15 mg/kg/day",53%
same,reduction in plasma cholesterol concentration,"C57BL/6J-ob/ob mice; ob/ob, low and mid dose levels (5, 15 mg/kg/day)",not evident
same,food consumption lower than control mice,"C57BL/6J-ob/ob mice; ob/ob, low dose 5 mg/kg/day",17%
same,animal body weight versus control,"HT-29 xenograft; prophylactic and therapeutic groups, 15 and 25 mg/kg ip",no significant difference
same,macroscopic appearance of tumours,"HT-29 xenograft; prophylactic group, control tumours solid",fluid-filled
same,tumour volume course,"HT-29 xenograft; prophylactic, 15 mg/kg ip",continued to increase
same,tumour weight smaller than in control animals,"HT-29 xenograft; prophylactic, 15 mg/kg ip",22%
same,time after which tumour growth reached a plateau,"HT-29 xenograft; prophylactic, 25 mg/kg ip",26 days
same,tumour weight smaller than in control animals,"HT-29 xenograft; prophylactic, 25 mg/kg ip",58%
same,lag phase of tumour growth,"HT-29 xenograft; prophylactic, control 15 days",22 days
same,tumour weight smaller than controls,"HT-29 xenograft; therapeutic, 15 mg/kg ip",45%
same,tumour weight smaller than controls,"HT-29 xenograft; therapeutic, 25 mg/kg ip",37%
same,plateau of tumour growth,"HT-29 xenograft; therapeutic, highest dose group 25 mg/kg, study incomplete",No plateau was reached
same,lag phase of tumour growth,"HT-29 xenograft; therapeutic, control 17 days",26 days

# From patent US8487003B2, “Treatment of cancer by administration of perfluorooctanoic acid” (CXR Biosciences Limited, priority 2001, dated 2013)
